Results taken from publication PMC9999251, “Pyrazole-based lamellarin O analogues: synthesis, biological evaluation and structure–activity relationships” (RSC Advances, 2023).

How the values were obtained:
HCT116 cells = experiment: Cell viability (MTT assay), HCT116; assay type: cell-based; details: Homo sapiens, HCT-116, 96 h treatment, read-out: GI50 ± SD HCT116
Description: (§1) SW480 (human colon adenocarcinoma, adherent, epithelial, ATCC number: CCL-228), HT29 (human colon adenocarcinoma, adherent, epithelial, ATCC number: HTB-38), and HCT116 (human colon adenocarcinoma, adherent, epithelial-like, ATCC number: CCL-247) cells were maintained in RPMI-1640 medium (Sigma-Aldrich). Medium was supplemented with heat-inactivated FBS (Biowest), penicillin–streptomycin (Sigma; with 10 000 units penicillin and 10 mg streptomycin per mL in 0.9% NaCl) and L-glutamine (Sigma; 200 mM solution). Cell cultures were cultivated at 37 °C, maintaining a humidified atmosphere consisting of 5% CO2. Gibco™ trypsin–EDTA (0.05%) was used for cell passage.
(§2) To evaluate cell viability, SW480, HT29, and HCT116 cells were harvested from culture flasks by trypsinization and seeded into 96-well plates in 4000 cells per well, 3000 cells per well and 4000 cells per well densities, respectively. After 24 h preincubation period, cells were treated in triplicates with nine different doses of each compound (6a–o and 7a–c) for 96 h. After treatment compound solutions were replaced with MTT solution (MTT reagent in PBS, […]) diluted in a 6 : 1 ratio in non-supplemented RPMI-1640 medium and were additionally incubated for 2 h. After incubation, the medium was removed, and formazan product was dissolved in DMSO. Optical densities were measured at 550 nm with TECAN Infinite® M200 PRO microplate reader using a reference wavelength of 690 nm to correct unspecific absorption. The quantity of viable cells was normalized to untreated controls. The GI50 values were calculated from dose–response curves.

[1] = Determination of HPLC–log P; assay type: physicochemical; details: reversed-phase HPLC on apHera C18 column; methanol / 0.01 M phosphate buffer pH 7.4; mean ± SD
Description: HPLC–log P values were determined using Shimadzu HPLC system equipped with apHera C18 column (10 × 6 mm, 5 μm, Supelco, Bellefonte, PA, USA). Each sample was dissolved in the internal standard mixture, consisting of triphenylene (99.9%, Carl Roth) and toluene (≥98%, Sigma-Aldrich). Analysis was performed at 1.5 mL min^−1 flow rate in the linear gradient where mobile phase consisted of methanol and 0.01 M phosphate buffer (pH 7.4). The HPLC–log P values were calculated from the measured retention times using previously published equation.[57]

SW480 cells = experiment: Cell viability (MTT assay), SW480; assay type: cell-based; details: Homo sapiens, SW480, 96 h, 96 h treatment, read-out: GI50 ± SD SW480
Description: as §1, §2

HT29 cells = experiment: Cell viability (MTT assay), HT29; assay type: cell-based; details: Homo sapiens, HT-29, 96 h treatment, read-out: GI50 ± SD HT29
Description: as §1, §2

human serum albumin = biological target: T1, human serum albumin (Homo sapiens, UniProt P02768); experiment: Plasma protein binding (PPB), HPLC on albumin-bound stationary phase; assay type: in vitro ADME; details: pH 7.4, binding to human serum albumin, HPLC method
T1 construct: purchased Chiral Technologies, DAICEL Group, Europe SAS, France CHIRALPAK®HAS (50 × 3 mm, 5 μm)
T1 sequence (P02768 25-609): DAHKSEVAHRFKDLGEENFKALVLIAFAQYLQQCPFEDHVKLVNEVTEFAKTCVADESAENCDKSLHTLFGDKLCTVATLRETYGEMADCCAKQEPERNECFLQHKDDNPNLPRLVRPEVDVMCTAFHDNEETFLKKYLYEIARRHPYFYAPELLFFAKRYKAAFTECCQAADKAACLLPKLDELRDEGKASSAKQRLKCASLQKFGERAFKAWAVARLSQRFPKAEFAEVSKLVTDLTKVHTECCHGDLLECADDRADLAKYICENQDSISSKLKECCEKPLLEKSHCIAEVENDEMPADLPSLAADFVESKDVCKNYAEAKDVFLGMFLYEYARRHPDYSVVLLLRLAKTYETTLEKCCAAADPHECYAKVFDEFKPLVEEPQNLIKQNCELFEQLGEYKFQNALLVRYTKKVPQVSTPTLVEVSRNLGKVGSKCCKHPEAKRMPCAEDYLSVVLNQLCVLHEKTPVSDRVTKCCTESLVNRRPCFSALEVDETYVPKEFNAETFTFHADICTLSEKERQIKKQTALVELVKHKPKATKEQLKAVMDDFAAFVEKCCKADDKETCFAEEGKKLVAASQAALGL
Description: Retention times of the analytes were measured with Shimadzu HPLC system on the CHIRALPAK®HAS stationary phase (50 × 3 mm, 5 μm, Chiral Technologies, DAICEL Group, Europe SAS, France). The mobile phase A consisted of 50 mM aqueous ammonium acetate buffer (pH 7.4) and phase B of 2-propanol according to Valko et al.[65] Analysis was performed at prolonged 1 mL min^−1 flow rate in the linear gradient. Retention capacity factors (k′) were calculated by using DMSO or a substance with 0% HAS binding for systems' dead time (Rt0). The system was calibrated by injecting the reference compounds: acetylsalicylic acid (CAS 69-72-7), betamethasone (CAS 378-44-9), budesonide (CAS 5133-22-3), carbamazepine (CAS 298-46-4), cimetidine (CAS 51481-61-9), ciprofloxacin (CAS 85721-33-1), indomethacin (CAS 53-86-1), isoniazid (CAS 54-85-3), metronidazole (CAS 443-48-1), nicardipine (CAS 55985-32-5), nizatidine (CAS 76963-41-2) and warfarin (CAS 81-81-2) obtained from Sigma-Aldrich, diclofenac (CAS 15307-86-5) from EMD Chemicals Inc., flumazenil (CAS 78755-81-4) from ABX and ketoprofen (CAS 22071-15-4) from LKT Labs. The logarithmic capacity factors of the references' Rt (log(k′)) on the HSA column were plotted against the %PPB values from literature. The slope and the intercept were used to convert the log(k′) of the compounds (6a, c, f, h, m–o) to %PPB using the regression equation.[66]

SMILES: CCOC(=O)c1c(-c2ccccc2)c(-c2ccccc2)nn1CC(=O)c1ccc(O)cc1 [Compound 6e, Ethyl 1-[2-(4-hydroxyphenyl)-2-oxoethyl]-3,4-diphenyl-1H-pyrazole-5-carboxylate]
- GI50 (HCT116 cells): > 20 µM
- chromatographic logP [1]: 3.803 ± 0.012
- GI50 (SW480 cells): > 20 µM
- melting point: 143 to 144 °C
- GI50 (HT29 cells): > 20 µM

SMILES: CCOC(=O)c1c(-c2ccc(OC)cc2)c(-c2ccc(F)cc2)nn1CC(=O)c1ccccc1 [Compound 6l, Ethyl 3-(4-fluorophenyl)-4-(4-methoxyphenyl)-1-(2-oxo-2-phenylethyl)-1H-pyrazole-5-carboxylate]
- GI50 (HCT116 cells): 5.05 ± 1.16 µM
- chromatographic logP [1]: 4.499 ± 0.006
- GI50 (SW480 cells): 8.28 ± 2.34 µM
- melting point: 87 to 88 °C
- GI50 (HT29 cells): > 20 µM

SMILES: COC(=O)c1c(-c2ccccc2)c(-c2ccccc2)nn1CC(=O)c1ccccc1 [Compound 7a, Methyl 1-(2-oxo-2-phenylethyl)-3,4-diphenyl-1H-pyrazole-5-carboxylate]
- GI50 (HCT116 cells): > 20 µM
- chromatographic logP [1]: 4.279 ± 0.005
- GI50 (SW480 cells): > 20 µM
- melting point: 138 to 139 °C
- GI50 (HT29 cells): > 20 µM

SMILES: CCOC(=O)c1c(-c2ccccc2)c(-c2ccccc2)nn1CC(=O)c1ccc(Cl)cc1 [Compound 6d, Ethyl 1-[2-(4-chlorophenyl)-2-oxoethyl]-3,4-diphenyl-1H-pyrazole-5-carboxylate]
- GI50 (HCT116 cells): 14.5 ± 3.92 µM
- chromatographic logP [1]: 4.711 ± 0.006
- GI50 (SW480 cells): > 20 µM
- melting point: 135 to 136 °C
- GI50 (HT29 cells): > 20 µM

SMILES: CCOC(=O)c1c(-c2ccc(OC)cc2)c(-c2ccc(OC)cc2)nn1CC(=O)c1ccc(Cl)cc1 [Compound 6i, Ethyl 1-[2-(4-chlorophenyl)-2-oxoethyl]-3,4-bis(4-methoxy-phenyl)-1H-pyrazole-5-carboxylate]
- GI50 (HCT116 cells): > 20 µM
- chromatographic logP [1]: 4.784 ± 0.005
- GI50 (SW480 cells): > 20 µM
- melting point: 132 to 133 °C
- GI50 (HT29 cells): > 20 µM

SMILES: CCOC(=O)c1c(-c2ccccc2)c(-c2ccccc2)nn1CC(=O)c1ccc(OC)cc1 [Compound 6b, Ethyl 1-[2-(4-methoxyphenyl)-2-oxoethyl]-3,4-diphenyl-1H-pyrazole-5-carboxylate]
- GI50 (HCT116 cells): > 20 µM
- chromatographic logP [1]: 4.468 ± 0.006
- GI50 (SW480 cells): > 20 µM
- melting point: 144 to 145 °C
- GI50 (HT29 cells): > 20 µM

SMILES: O=C(Cn1nc(-c2ccccc2)c(-c2ccccc2)c1C(=O)O)c1ccccc1 [6a′, 1-(2-Oxo-2-phenylethyl)-3,4-diphenyl-1H-pyrazole-5-carboxylic acid]
- melting point: 209 to 210 °C

SMILES: CCOC(=O)c1c(-c2ccc(OC)cc2)c(-c2ccc(OC)cc2)nn1CC(=O)c1ccccc1 [Compound 6f, Ethyl 3,4-bis(4-methoxyphenyl)-1-(2-oxo-2-phenylethyl)-1H-pyrazole-5-carboxylate]
- GI50 (HCT116 cells): 2.29 ± 0.218 µM
- chromatographic logP [1]: 4.462 ± 0.005
- GI50 (SW480 cells): > 20 µM
- melting point: 62 to 63 °C
- fraction unbound (human serum albumin): 0.061
- GI50 (HT29 cells): > 20 µM

SMILES: COC(=O)c1c(-c2ccccc2)c(-c2ccccc2)nn1CC(=O)c1ccc(OC)cc1 [Compound 7b, Methyl 1-[2-(4-methoxyphenyl)-2-oxoethyl]-3,4-diphenyl-1H-pyrazole-5-carboxylate]
- GI50 (HCT116 cells): > 20 µM
- chromatographic logP [1]: 4.347 ± 0.007
- GI50 (SW480 cells): > 20 µM
- melting point: 163 to 164 °C
- GI50 (HT29 cells): > 20 µM

SMILES: CCOC(=O)c1c(-c2ccccc2)c(-c2ccccc2)nn1CC(=O)c1ccccc1 [Compound 6a, Ethyl 1-(2-oxo-2-phenylethyl)-3,4-diphenyl-1H-pyrazole-5-carboxylate]
- GI50 (HCT116 cells): 5.46 ± 0.393 µM
- chromatographic logP [1]: 4.381 ± 0.002
- GI50 (SW480 cells): > 20 µM
- melting point: 112 to 113 °C
- fraction unbound (human serum albumin): 0.046
- GI50 (HT29 cells): > 20 µM

SMILES: CCOC(=O)c1c(-c2ccccc2)c(-c2ccc(F)cc2)nn1CC(=O)c1ccccc1 [Compound 6j, Ethyl 3-(4-fluorophenyl)-1-(2-oxo-2-phenylethyl)-4-phenyl-1H-pyrazole-5-carboxylate]
- GI50 (HCT116 cells): 3.75 ± 1.06 µM
- chromatographic logP [1]: 4.49 ± 0.006
- GI50 (SW480 cells): 9.24 ± 2.15 µM
- melting point: 135 to 136 °C
- GI50 (HT29 cells): 13.8 ± 0.861 µM

SMILES: CCOC(=O)c1c(-c2ccc(OC)cc2)c(-c2ccc(OC)cc2)nn1CC(=O)c1ccc(OC)cc1 [Compound 6g, Ethyl 3,4-bis(4-methoxyphenyl)-1-[2-(4-methoxyphenyl)-2-oxoethyl]-1H-pyrazole-5-carboxylate]
- GI50 (HCT116 cells): > 20 µM
- chromatographic logP [1]: 4.531 ± 0.004
- GI50 (SW480 cells): > 20 µM
- melting point: 67 to 68 °C
- GI50 (HT29 cells): > 20 µM

SMILES: CCOC(=O)c1c(-c2ccc(OC)cc2)c(-c2ccc(F)cc2)nn1CC(=O)c1ccc(F)cc1 [Compound 6n, Ethyl 3-(4-fluorophenyl)-1-[2-(4-fluorophenyl)-2-oxoethyl]-4-(4-methoxyphenyl)-1H-pyrazole-5-carboxylate]
- GI50 (HCT116 cells): 2.1 ± 0.198 µM
- chromatographic logP [1]: 4.564 ± 0.004
- GI50 (SW480 cells): 1.64 ± 0.022 µM
- melting point: 81 to 82 °C
- fraction unbound (human serum albumin): 0.047
- GI50 (HT29 cells): 6.78 ± 0.463 µM

SMILES: CCOC(=O)c1c(-c2ccc(F)cc2)c(-c2ccc(F)cc2)nn1CC(=O)c1ccccc1 [Compound 6k, Ethyl 3,4-bis(4-fluorophenyl)-1-(2-oxo-2-phenylethyl)-1H-pyrazole-5-carboxylate]
- GI50 (HCT116 cells): 3.39 ± 0.62 µM
- chromatographic logP [1]: 4.546 ± 0.005
- GI50 (SW480 cells): 7.81 ± 2.02 µM
- melting point: 103 to 104 °C
- GI50 (HT29 cells): 11.1 ± 2.62 µM

SMILES: COC(=O)c1c(-c2ccccc2)c(-c2ccccc2)nn1CC(=O)c1ccc(F)cc1 [Compound 7c, Methyl 1-[2-(4-fluorophenyl)-2-oxoethyl]-3,4-diphenyl-1H-pyrazole-5-carboxylate]
- GI50 (HCT116 cells): 2.7 ± 0.689 µM
- chromatographic logP [1]: 4.327 ± 0.007
- melting point: 114 to 115 °C
- GI50 (HT29 cells): 9.72 ± 3.71 µM

SMILES: CCOC(=O)c1c(-c2ccc(F)cc2)c(-c2ccc(F)cc2)nn1CC(=O)c1ccc(F)cc1 [Compound 6o, Ethyl 3,4-bis(4-fluorophenyl)-1-[2-(4-fluorophenyl)-2-oxoethyl]-1H-pyrazole-5-carboxylate]
- GI50 (HCT116 cells): 2.36 ± 0.039 µM
- chromatographic logP [1]: 4.598 ± 0.004
- GI50 (SW480 cells): 2.09 ± 0.032 µM
- melting point: 105 to 106 °C
- fraction unbound (human serum albumin): 0.029
- GI50 (HT29 cells): 6.67 ± 2.12 µM

SMILES: CCOC(=O)c1c(-c2ccc(OC)cc2)c(-c2ccc(OC)cc2)nn1CC(=O)c1ccc(F)cc1 [Compound 6h, Ethyl 1-[2-(4-fluorophenyl)-2-oxoethyl]-3,4-bis(4-methoxy-phenyl)-1H-pyrazole-5-carboxylate]
- GI50 (HCT116 cells): 2.07 ± 1.45 µM
- chromatographic logP [1]: 4.531 ± 0.006
- GI50 (SW480 cells): 4.76 ± 2.33 µM
- melting point: 104 to 105 °C
- fraction unbound (human serum albumin): 0.062
- GI50 (HT29 cells): 4.76 ± 2.33 µM
